Results as given in PubChem BioAssay AID1845194 (Molecular Pharmacology Branch, DTP, NCI, 2023).
Several values for one entry are separate records, joined by “and”; a condition that tells them apart may be missing. Equal entries are not always repeated.

System: 287954-098-R-J1 tumor spheroid viability
Assay: Anticancer human tumor 287954-098-R-J1 patient-derived Ewing sarcoma cell line growth inhibition
Details: spheroids with HUVEC and MSC; for viability, T/C: stronger effect = lower value; active means viability on the fitted dose curve at most 10% of control; inactive means the rest
How it was run: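 Complex tumor spheroids combined malignant cells with endothelial cells and mesenchymal stem cells. DNA-damaging drugs and DNA repair inhibitors were tested alone and in combination, at half-log dilutions down from clinical Cmax (top 10 microM if Cmax unknown), 0.25% DMSO final.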

[1] = curve of first compound, second compound 1 µM
[2] = curve of first compound, second compound 3.16 µM
[3] = curve of first compound, second compound 10 µM
[4] = curve of first compound, second compound 31.6 µM
[5] = curve of first compound, second compound 100 µM
[6] = second compound 1 µM, first compound 0.00949 µM
[7] = second compound 1 µM, first compound 0.03 µM
[8] = second compound 1 µM, first compound 0.0949 µM
[9] = second compound 1 µM, first compound 0.3 µM
[10] = second compound 1 µM, first compound 0.949 µM
[11] = second compound 1 µM, first compound 3 µM
[12] = second compound 3.16 µM, first compound 0.00949 µM
[13] = second compound 3.16 µM, first compound 0.03 µM
[14] = second compound 3.16 µM, first compound 0.0949 µM
[15] = second compound 3.16 µM, first compound 0.3 µM
[16] = second compound 3.16 µM, first compound 0.949 µM
[17] = second compound 3.16 µM, first compound 3 µM
[18] = second compound 10 µM, first compound 0.00949 µM
[19] = second compound 10 µM, first compound 0.03 µM
[20] = second compound 10 µM, first compound 0.0949 µM
[21] = second compound 10 µM, first compound 0.3 µM
[22] = second compound 10 µM, first compound 0.949 µM
[23] = second compound 10 µM, first compound 3 µM
[24] = second compound 31.6 µM, first compound 0.00949 µM
[25] = second compound 31.6 µM, first compound 0.03 µM
[26] = second compound 31.6 µM, first compound 0.0949 µM
[27] = second compound 31.6 µM, first compound 0.3 µM
[28] = second compound 31.6 µM, first compound 0.949 µM
[29] = second compound 31.6 µM, first compound 3 µM
[30] = second compound 100 µM, first compound 0.00949 µM
[31] = second compound 100 µM, first compound 0.03 µM
[32] = second compound 100 µM, first compound 0.0949 µM
[33] = second compound 100 µM, first compound 0.3 µM
[34] = second compound 100 µM, first compound 0.949 µM
[35] = second compound 100 µM, first compound 3 µM
[36] = second compound 1 µM, first compound 0.0316 µM
[37] = second compound 1 µM, first compound 0.1 µM
[38] = second compound 1 µM, first compound 0.316 µM
[39] = second compound 1 µM, first compound 1 µM
[40] = second compound 1 µM, first compound 3.16 µM
[41] = second compound 1 µM, first compound 10 µM
[42] = second compound 3.16 µM, first compound 0.0316 µM
[43] = second compound 3.16 µM, first compound 0.1 µM
[44] = second compound 3.16 µM, first compound 0.316 µM
[45] = second compound 3.16 µM, first compound 1 µM
[46] = second compound 3.16 µM, first compound 3.16 µM
[47] = second compound 3.16 µM, first compound 10 µM
[48] = second compound 10 µM, first compound 0.0316 µM
[49] = second compound 10 µM, first compound 0.1 µM
[50] = second compound 10 µM, first compound 0.316 µM
[51] = second compound 10 µM, first compound 1 µM
[52] = second compound 10 µM, first compound 3.16 µM
[53] = second compound 10 µM, first compound 10 µM
[54] = second compound 31.6 µM, first compound 0.0316 µM
[55] = second compound 31.6 µM, first compound 0.1 µM
[56] = second compound 31.6 µM, first compound 0.316 µM
[57] = second compound 31.6 µM, first compound 1 µM
[58] = second compound 31.6 µM, first compound 3.16 µM
[59] = second compound 31.6 µM, first compound 10 µM
[60] = second compound 100 µM, first compound 0.0316 µM
[61] = second compound 100 µM, first compound 0.1 µM
[62] = second compound 100 µM, first compound 0.316 µM
[63] = second compound 100 µM, first compound 1 µM
[64] = second compound 100 µM, first compound 3.16 µM
[65] = second compound 100 µM, first compound 10 µM
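Further: spheroids exposed to compound for 7 days before viability readout.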
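Wherever viability, T/C is given: luminescent signal taken as surrogate of viable cell content.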

Cn1ncnc1[C@H]1c2n[nH]c(=O)c3cc(F)cc(c23)N[C@@H]1c1ccc(F)cc1 + Cn1nnc2c(C(N)=O)ncn2c1=O
543 nM: IC50 [2]
506 nM: IC50 [3]
544 nM: IC50 [1]
57 nM: IC50 [4]
inactive: viability, T/C [6] 111% | viability, T/C [7] 106% | viability, T/C [8] 104% | viability, T/C [9] 94.7% | viability, T/C [12] 112% | viability, T/C [13] 106% | viability, T/C [14] 106% | viability, T/C [15] 99.2% | viability, T/C [18] 102% | viability, T/C [19] 106% | viability, T/C [20] 104% | viability, T/C [21] 89.2% | viability, T/C [24] 104% | viability, T/C [25] 90.6% | viability, T/C [26] 17.9%
active: viability, T/C [10] 8.18% | viability, T/C [11] 2.42% | viability, T/C [16] 3.64% | viability, T/C [17] 2.29% | viability, T/C [22] 2.82% | viability, T/C [23] 2.58% | viability, T/C [27] 2.5% | viability, T/C [28] 2.34% | viability, T/C [29] 2.04% | viability, T/C [30] 3.4% | viability, T/C [31] 2.77% | viability, T/C [32] 2.49% | viability, T/C [33] 2.57% | viability, T/C [34] 2.68% | viability, T/C [35] 2.3%
< 9.49 nM: IC50 [5]

CC(C)n1c(=O)n(C)c2cnc3cc(F)c(-c4ccc(OCCCN5CCCCC5)nc4)cc3c21
inactive: viability, T/C (compound 0.0316 µM) 110% (2×) and 102% | viability, T/C (compound 0.1 µM) 102% (2×) and 101% | viability, T/C (compound 0.316 µM) 110% and 98.5% and 105% | viability, T/C (compound 1 µM) 102% and 110% and 112% | viability, T/C (compound 3.16 µM) 108% and 107% (2×) | viability, T/C (compound 10 µM) 11% and 86.6% and 25.5%
6240 nM and > 10000 nM and 7030 nM: IC50 (curve of compound)

COc1ccc([C@@H](O)c2cc(-c3ncnc4cc(N5CCOCC5)ccc34)c(F)cc2Cl)nn1 + Cn1nnc2c(C(N)=O)ncn2c1=O
> 10000 nM: IC50 [1] | IC50 [2] | IC50 [3] | IC50 [4] | IC50 [5]
inactive: viability, T/C [36] 107% | viability, T/C [37] 109% | viability, T/C [38] 109% | viability, T/C [39] 112% | viability, T/C [40] 101% | viability, T/C [41] 92.8% | viability, T/C [42] 105% | viability, T/C [43] 105% | viability, T/C [44] 104% | viability, T/C [45] 107% | viability, T/C [46] 101% | viability, T/C [47] 94.5% | viability, T/C [48] 107% | viability, T/C [49] 106% | viability, T/C [50] 101% | viability, T/C [51] 105% | viability, T/C [52] 105% | viability, T/C [53] 101% | viability, T/C [54] 103% | viability, T/C [55] 111% | viability, T/C [56] 105% | viability, T/C [57] 112% | viability, T/C [58] 110% | viability, T/C [59] 97% | viability, T/C [60] 102% | viability, T/C [61] 110% | viability, T/C [62] 104% | viability, T/C [63] 109% | viability, T/C [64] 96.9% | viability, T/C [65] 84%

CNCc1ccc(-c2cc(-c3nc(-c4ccc(S(=O)(=O)C(C)C)cc4)cnc3N)on2)cc1 + Cn1nnc2c(C(N)=O)ncn2c1=O
398 nM: IC50 [4]
170 nM: IC50 [5]
inactive: viability, T/C [6] 98.6% | viability, T/C [7] 103% | viability, T/C [8] 110% | viability, T/C [9] 103% | viability, T/C [12] 105% | viability, T/C [13] 106% | viability, T/C [14] 113% | viability, T/C [15] 107% | viability, T/C [18] 102% | viability, T/C [19] 110% | viability, T/C [20] 106% | viability, T/C [21] 105% | viability, T/C [24] 104% | viability, T/C [25] 106% | viability, T/C [26] 121% | viability, T/C [27] 66.3% | viability, T/C [30] 97.5% | viability, T/C [31] 100% | viability, T/C [32] 103%
551 nM: IC50 [3]
555 nM: IC50 [2]
545 nM: IC50 [1]
active: viability, T/C [10] 0.19% | viability, T/C [11] 0.11% | viability, T/C [16] 0.19% | viability, T/C [17] 0.1% | viability, T/C [22] 0.16% | viability, T/C [23] 0.09% | viability, T/C [28] 0.13% | viability, T/C [29] 0.1% | viability, T/C [33] 1.71% | viability, T/C [34] 0.14% | viability, T/C [35] 0.16%

[2H]c1nc(C)nc([2H])c1-c1cc(NC[C@@H](C)c2cccc3c(C(=O)NC)ccnc23)ncn1 + Cn1nnc2c(C(N)=O)ncn2c1=O
inactive: viability, T/C [36] 104% | viability, T/C [37] 103% | viability, T/C [38] 106% | viability, T/C [39] 97.6% | viability, T/C [40] 99.5% | viability, T/C [41] 101% | viability, T/C [42] 106% | viability, T/C [43] 93.9% | viability, T/C [44] 99.3% | viability, T/C [45] 106% | viability, T/C [46] 107% | viability, T/C [47] 99.3% | viability, T/C [48] 101% | viability, T/C [49] 100% | viability, T/C [50] 99.7% | viability, T/C [51] 104% | viability, T/C [52] 103% | viability, T/C [53] 105% | viability, T/C [54] 106% | viability, T/C [55] 103% | viability, T/C [56] 102% | viability, T/C [57] 103% | viability, T/C [58] 98.8% | viability, T/C [59] 106% | viability, T/C [60] 99.7% | viability, T/C [61] 103% | viability, T/C [62] 97.7% | viability, T/C [63] 98.2% | viability, T/C [64] 97.6% | viability, T/C [65] 94.4%
> 10000 nM: IC50 [1] | IC50 [2] | IC50 [3] | IC50 [4] | IC50 [5]
